Results: patent US7374890B2, “Methods for identifying compounds that modulate ΔTRα2 activity” (University of Massachusetts, priority 2000, dated 2008)
One block for each molecule: values may come before it.

Assays:
[1] = tested on: cerebellar granule neurons; test: release of FM1-43-loaded synaptic vesicles from cerebellar granule neurons under continuous stimulus; type: cell-based, rat
Description: Granule neurons were grown for 7 days and rendered hormone free by growth in serum-free medium as detailed above. Coverslips were then placed in a perfusion chamber, mounted on the stage of a laser scanning confocal microscope and perfused at 1 ml/min at 25° C. with perfusion buffer (119 mM NaCl, 2.5 mM KCl, 2 mM CaCl2, 2 mM MgCl2, 25 mM HEPES (pH 7.4), 30 mM glucose, and […] AP-5). The effects of different hormones on synaptic vesicle trafficking were then determined. […] Depolarizing KCl was then removed from the perfusion buffer and the cells were exposed to FM1-43 for an additional 30 seconds to insure complete loading of recycling synaptic vesicles. Loaded cells were then washed free of dye and the cells were perfused for ten minutes at rest.
Images of a single field of neuronal fibers were then taken immediately before adding a second depolarizing solution (perfusion buffer containing 50 mM KCl) and at one and two minutes after beginning the continuous stimulation by 50 mM KCl. Thirty to forty-five individual FM1-43 labeled nerve terminals were identified in the baseline images (taken prior to depolarization) and the change in fluorescence (DF) for each nerve terminal determined at the one and two minute time points. FIGS. 11A and 11B show the results of analysis of the hormone specificity of synaptic vesicle trafficking (FIG. 11A) and the influence of individual myo5a mutants (FIG. 11B) on synaptic vesicle transport in granule neurons.
To evaluate the role of myo5a in synaptic vesicle transport, three different myo5a constructs were introduced into the neurons by replication-deficient adenoviral vectors (Δmyo5a^tail(MyoV^tail), Δmyo5a^c-term(MyoV^1830)and ΔMyo5a^CC(MyoV^cc) see FIG. 5) as described above. […] Neurons were infected with purified Ad5-constructs (MOI=10) 48 hours prior to the synaptic vesicle trafficking study, and allowed to recover in hormone (T4) supplemented medium. […] This modest influence of the VBD mutant on synaptic vesicle retention is likely to be due to the loss of the kinesin-binding domain that limits its delivery to nerve terminals.

[2] = tested on: binding of p29^GFP vesicles to F-actin; test: modified in vitro actin binding assay with p29^GFP-labeled vesicles; type: biochemical, rat; conditions: for competition with native myosin V for T4-dependent binding of p29 to F-actin: ~2-3 pmol polypeptide/50 μl mixture, 10 nM T4
Description: To define the specific region(s) of the myosin V tail that interact with the p29 vesicle, a series of deletion mutations were created based on the dominant negative effect of exogenous myosin V tail on p29 vesicle binding. Competition analysis of the myosin V deletion mutations on T4-dependent binding of p29 vesicles to F-actin was performed using a modified in vitro assay in which a GFP-tagged p29 fusion protein (p29^GFP) replaced the radioaffinity labeled native p29 (Farwell et al., 1990, J. Biol. Chem. 265:18546-18553; Farwell et al., 1993, J. Biol. Chem. 268:5055-5062). This allowed direct evaluation of the binding of fluorescent vesicles to F-actin without affinity radiolabeling of the p29 and subsequent SDS-PAGE analysis.
Specific fluorescence at 510 nm (excitation, 488 nm) was then determined in the resuspended Triton-insoluble pellets.
To determine if the myosin V tail could be captured by the p29^GFP vesicle, an exogenous myosin V^tail was introduced into astrocytes constitutively expressing p29^GFP by infection with Ad5-ΔMyo V^tail virus particles and examined the effects of T4 on the binding of the myosin V^tail to immunopurified p29^GFP vesicles. Astrocytes expressing p29^GFP were grown in serum-free media and treated for 16 hours with 1 mM bt2cAMP and 100 nM hydrocortisone. A separate pool of astrocytes was treated in serum-free media supplemented with 10 μM retinoic acid. Cells were collected by scraping, and lysed by two freeze-thaw cycles. […] Triton-soluble (vesicle) and Triton-insoluble (F-actin) fractions were separated by microflige centrifugation. Triton pellets were resuspended in 300 μl of PBS and fluorescence at 510 nm (excitation 488 nm) determined and relative fluorescence was reported as arbitrary units. Cells were treated with 10 nM T4 for twenty minutes and a Triton-soluble supernatant was prepared. Vesicles containing the p29^GFP were immunoprecipitated by anti-GFP IgG (2 μg/ml) and protein in the immunoprecipitates were resolved by SDS-PAGE. Immunoblot analysis of vesicle-associated myosin V was performed using the anti-myosin V antibody directed against the C-terminus.
The quantity of each mutant protein synthesized was determined by [^35 S]-methionine incorporation. Astrocytes expressing p29^GFP were grown in serum-free media and treated for 16 hours with […] bt2cAMP and 100 nM hydrocortisone. p29^GFP V-lysate and F-lysate were prepared as described herein. 100 μg aliquots of p29^GFP V-lysate and F-lysate were pre-incubated, in triplicate, for 20 minutes at 37° C. in the presence of individual Δ myosin V mutant proteins (˜2-3 pmol polypeptide/50 μl mixture) were added to the actin-binding assay and pre-incubated for 20 minutes at 37° C. T4 (10 nM) was then added, the mixtures incubated for 20 minutes at 37° C., and F-actin bound, fluorescent p29^GFP vesicles were then isolated in the Triton-insoluble pellet.
V lysates prepared from astrocytes over-expressing p29^GFP were pre-incubated for 30 minutes at room temperature with antisera raised against ΔTRα2, ΔTRα1, the C-terminus of MyoV (encoded by MyoV^tail, FIG. 5), the coiled-coil region of MyoV (encoded by MyoV^coil-coil, FIG. 5) and GFP (green fluorescent protein). T4 (10 nM) and actin fiber-containing F-lysate was then added, the mixtures incubated at 37° C. for 20 minutes, and the Triton-insoluble fraction isolated by centrifugation.

[3] = tested on: cerebellar granule neurons; test: FM1-43 synaptic vesicle recycling in cultured cerebellar granule neurons, spontaneous activity; type: cell-based, rat
Description: All of the major components of hormone-induced vesicle trafficking in astrocytes (actin fibers, myosin V (also referred to as myosin 5a and myo 5a), and recycling vesicles) are also present in nerve terminals. Therefore, the effects of thyroid hormone on synaptic vesicle recycling in the presynaptic nerve terminal were examined using myo5a-dependent synaptic vesicle (SV) recycling in cultured cerebellar granule neurons. In these experiments, rat granule neurons were grown on laminin-coated coverslips in the absence or presence of hormone and synaptic vesicle recycling was examined using FM1-43 (a styryl dye used in the art for studying endocytosis and exocytosis, e.g., in synaptic vesicle uptake and release assays; Molecular Probes, Inc. Eugene, Oreg.). […] In contrast, granule neurons grown in thyroid hormone supplemented medium released only 15-20% of the FM1-43 after six minutes of incubation and the hormone specificity of retention of FM1-43 in the “reserve pool” was identical to that determined for myo5a-dependent, endocytosis of p29 vesicles (D2p29 vesicles) in astrocytes.
Cerebellar granule neurons were examined because thyroid hormone has a profound influence on granule neuron viability during cerebellar maturation (Xiao and Nikodem, 1998, Front. Biosci. 3: A52-57; Rabie et al., 1980, Brain Res. 190:409-414), and because of the effects of the loss of myo5a on synaptic vesicle homeostasis (Bridgman, 1999, J. Cell Biol. 146:1045-1060). […]
Experiments were conducted to determine whether synaptic vesicle endocytosis could be altered by the hormone status of the neuron. […] The dye was then removed and the number, intensity and retention of the FM1-43 in random nerve terminals immediately after washing and after six minutes of autonomous activity were analyzed in paraformaldehyde fixed cells (Ryan, 1999, J. Neurosci.: 19:1317-1323). Fluorescence in single nerve terminals (ROI=7×7 pixels) and in an adjacent segment of the neuronal fiber were measured for 40-45 individual nerve terminals. […] Fluorescence intensity was determined using NIH Image software. The total FM1-43 fluorescence in a nerve terminal represents the sum of the dye-loaded synaptic vesicles in the readily releasable and the reserve pools.
By allowing recurrent activity, the FM1-43 filled synaptic vesicles present in the readily releasable pool will be progressively depleted. […] By measuring the total FM1-43 content in random nerve terminals immediately after loading and at 30 second intervals for six minutes of spontaneous activity, the influence of hormones on the distribution of recycling synaptic vesicles between the readily releasable and reserve pools was estimated.

Molecule: Δ myosin ^1830: myosin V tail deletion mutant, residues 1830-1852; vesicle-binding domain (NPSSLALETIQIPASLGLGFIAR)
increase of the t1/2 of FM1-43 retention ([1]; expression from Ad5 construct (MOI=10), T4 supplemented medium): 50%

Molecule: N[C@@H](Cc1cc(I)c(Oc2ccc(O)c(I)c2)c(I)c1)C(=O)O [T3, 3,5, 3′-triiodothyronine]
p29^GFP vesicle binding to F-actin, dose-response ([2]; 0-100 nM, below the highest concentration): did not increase
increase in p29^GFP vesicle binding to F-actin ([2]; 100 nM, highest concentration of hormone used): 10-20%
endocytosed FM1-43 released ([3]; after three minutes of spontaneous activity): > 80%
uptake of FM1-43 ([3]; immediately after loading): No differences
retention of recycling synaptic vesicles ([1]; 10 nM hormone, continuous stimulation by 50 mM KCl): no effect

More lines, now with the values ahead:

competition with native myosin V for T4-dependent binding of p29 to F-actin [2]: did not compete
B1: A myosin V middle: myosin V truncation mutant corresponding to amino acids 504-1307 (protein)
chain: GILDLLDEECKMPKGTDDTWAQKLYNTHLNKCALFEKPRMSNKAFIIKHFADKVEYQCEGFLEKNKDTVFEEQIKVLKSSKFKMLPELFQDDEKAISPTSATSSGRTPLTRVPVKPTKGRPGQTAKEHKKTVGHQFRNSLHLLMETLNATTPHYVRCIKPNDFKFPFTFDEKRAVQQLRACGVLETIRISAAGFPSRWTYQEFFSRYRVLMKQKDVLGDRKQTCKNVLEKLILDKDKYQFGKTKIFFRAGQVAYLEKLRADKLRAACIRIQKTIRGWLLRKRYLCMQRAAITVQRYVRGYQARCYAKFLRRTKAATTIQKYWRMYVVRRRYKIRRAATIVIQSYLRGYLTRNRYRKILREYKAVIIQKRVRGWLARTHYKRTMKAIVYLQCCFRRMMAKRELKKLKIEARSVERYKKLHIGMENKIMQLQRKVDEQNKDYKCLMEKLTNLEGVYNSETEKLRNDVERLQLSEEEAKVATGRVLSLQEEIAKLRKDLEQTRSEKKSIEERADKYKQETDQLVSNLKEENTLLKQEKETLNHRIVEQAKEMTETMERKLVEETKQLELDLNDERLRYQNLLNEFSRLEERYDDLKEEMTLMLNVPKPGHKRTDSTHSSNESEYTFSSEFAETEDIAPRTEEPIEKKVPLDMSLFLKLQKRVTELEQEKQLMQDELDRKEEQVFRSKAKEEERPQIRGAELEYESLKRQELESENKKLKNELNELRKALSEKSAPEVTAPGAPAYRVLMEQLTSVSEELDVRKEEVLILRSQLVSQKEAIQPKDDKNTMTDSTILLEDVQKMKDKGE

competition with native myosin V for T4-dependent binding of p29 to F-actin [2]: did not compete
B2: myosin V tail lacking the last 44 residues (residues 953-1803): myosin V tail truncation mutant, residues 953-1803 (protein)
chain: LEGVYNSETEKLRNDVERLQLSEEEAKVATGRVLSLQEEIAKLRKDLEQTRSEKKSIEERADKYKQETDQLVSNLKEENTLLKQEKETLNHRIVEQAKEMTETMERKLVEETKQLELDLNDERLRYQNLLNEFSRLEERYDDLKEEMTLMLNVPKPGHKRTDSTHSSNESEYTFSSEFAETEDIAPRTEEPIEKKVPLDMSLFLKLQKRVTELEQEKQLMQDELDRKEEQVFRSKAKEEERPQIRGAELEYESLKRQELESENKKLKNELNELRKALSEKSAPEVTAPGAPAYRVLMEQLTSVSEELDVRKEEVLILRSQLVSQKEAIQPKDDKNTMTDSTILLEDVQKMKDKGEIAQAYIGLKETNRLLESQLQSQKRSHENEAEALRGEIQSLKEENNRQQQLLAQNLQLPPEARIEASLQHEITRLTNENLYFEELYADDPKKYQSYRISLYKRMIDLMEQLEKQDKTVRKLKKQLKVFAKKIGELEVGQMENISPGQIIDEPIRPVNIPRKEKDFQGMLEYKREDEQKLVKNLILELKPRGVAVNLIPGLPAYILFMCVRHADYLNDDQKVRSLLTSTINSIKKVLKKRGDDFETVSFWLSNTCRFLHCLKQYSGEEGFMKHNTSRQNEHCLTNFDLAEYRQVLSDLAIQIYQQLVRVLENILQPMIVSGMLEHETIQGVSGVKPTGLRKRTSSIADEGTYTLDSILRQLNSFHSVMCQHGMDPELIKQVVKQMFYIVGAITLNNLLLRKDMCSWSKGMQIRYNVSQLEEWLRDKNLMNSGAKETLEPLIQAAQLLQVKKKTDDDAEAICSMCNALTTAQIVKVLNLYTPVNEFEERVSVSFIRTIQ
